# Laboratory results: patent USRE46943E1, “Radioprotector compounds and methods” (PETER MACCALLUM CANCER INSTITUTE, priority 2010, dated 2018)
# Columns and labels:
# [1] = test system: oral mucosa of mouse tongue; test: Topical radioprotection of the oral mucosa of mouse tongue (mucosal ulceration endpoint); format: in vivo, mice of the inbred C3H/Neu strain
# Method: Mice of the inbred C3H/Neu strain were sourced from a breeding colony at the Medical Faculty Carl Gustav Cams, Dresden, Germany. The animals were bred and housed under specified pathogen-free conditions. Housing was under controlled conditions of humidity (30-50%) and temperature (21° C.-24° C.). An automated light programme regulated a 12/12-hour light/dark rhythm with lights on from 6 am to 6 pm. The mice were kept in size 3 Macrolon cages, maximum of 10 per cage, on sawdust bedding. Standard mouse diet (Altromin 1326, Altrogge) and filtered city tap water from standard perspex drinking bottles were provided ad libitum.
# A 3 mm×3 mm field at the middle of the lower surface of the mouse tongue was irradiated with 25 kV x-rays from a Darpac 150-MC device (Forward Raytech Ltd, Swinburne, UK) operated with a tube current of 20 milliamps yielding a dose rate of 3.78 Gy per minute and a focus-skin distance of 15 cm. Anaesthetised mice (sodium pentabarbitone; 60 mg per kg) were placed in a supine position in the central cylindrical hole (diameter 25 mm) of a pre-warmed aluminium block (approximately 35° C.). The tongue was guided through a hole (diameter 3 mm) in roof of the block by use of forceps, and the upper surface of the tongue was fixed to the outer surface of the block with double-sided adhesive tape. The head was supported by a polystyrene wedge to avoid traction of the base of the tongue and consequent hypoxia. The collimator was a 1 mm thick aluminium plate with a 3×3 mm^2 window positioned centrally over the lower surface of the tongue. Groups of 10 mice, were irradiated with 5 different doses in the range of 10-20 Gy.
# One hour prior to irradiation, 10 microlitres of formulation was applied to the lower surface of the tongue of anaesthetised mice using a displacement micropipette. Thirty minutes later, a second 10 microlitre aliquot of the formulation was applied and the mice irradiated thirty minutes later.
# Stock solutions of the appropriate drug in propylene glycol or water were diluted with an aqueous solution of Poloxamer 407 gel (BASF Lutrol F 127) and/or a solution of hydroxypropyl cellulose (approx average MW 80,000; Aldrich cat no 435007) in propylene glycol and with water and/or propylene glycol, producing each of two formulations: • Formulation 1—gel, which contained 10 or 30 mM drug in 20% Poloxamer 407 and 1% hydroxylpropyl cellulose in 30% propylene glycol in water, and • Formulation 2—Liquid, which contained 10, 30 or 60 mM drug in propylene glycol […] of 2% hydroxypropyl cellulose. Scoring and Data Analysis
# At various times after irradiation, the lower surface of the tongue of anaesthetised mice was examined daily. The quantal endpoint used was mucosal ulceration, corresponding to confluent mucositis RTOG/EORTC grade 3. The data plotted in the example figures is the percentage of a group of 10 mice in which the endpoint of mucosal ulceration was scored for at least 2 consecutive days. Radiation dose effect curves were generated with a single parameter sigmoidal relationship (logistic function
# [formula] using the Prism 5.0 curve-fitting programme to generate the ED50 value, which corresponds to the interpolated radiation dose at which 50% of the mice in the group reached the mucosal ulceration endpoint.
# [2] = test system: transformed human keratinocyte cell line (FEP 1811); test: Clonogenic survival cell culture assay for radioprotective activity (12 Gy 137Cs gamma irradiation); format: cell-based; conditions: 12 Gy; for DMF10 (dose modification factor at a concentration of 10 microM of radioprotector): 10 microM radioprotector; for DMFm (dose modification factor at maximum protection): DMF=Dp/Dc at survival level Sm; for PF (protection factor = Sm/So): survival at maximum protection vs irradiation only
# In short: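 Survival after irradiation gave protection factor PF = Sm/So (maximum-protection survival over irradiation-only survival). DMF = Dp/Dc is the ratio of doses giving survival Sm with and without radioprotector. DMF10 uses survival at 10 microM radioprotector in place of Sm.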
# [3] = 10 mM drug in Formulation 1, topical to tongue
# [4] = 10 mM drug in Formulation 1 vs vehicle
# [5] = 30 mM drug in Formulation 2, topical to tongue
# [6] = 30 mM drug in Formulation 2 vs vehicle
SMILES,"ED50 (radiation dose at which 50% of the mice reached mucosal ulceration) [1, 3] [Gy]","dose reduction factor [1, 4]",DMF10 (dose modification factor at a concentration of 10 microM of radioprotector) [2],DMFm (dose modification factor at maximum protection) [2],PF (protection factor = Sm/So) [2],"ED50 (radiation dose at which 50% of the mice reached mucosal ulceration) [1, 5] [Gy]","dose reduction factor [1, 6]",melting point,"ED50 (radiation dose at which 50% of the mice reached mucosal ulceration) ([1]; 60 mM drug in Formulation 3, topical to tongue) [Gy]",dose reduction factor ([1]; 60 mM drug in Formulation 3 vs blank formulation)
"CN1CCN(c2ccc3nc(-c4ccc5nc(-c6ccccn6)[nH]c5c4)[nH]c3c2)CC1 [Example 2, 2-(5′-(5″-(4′″-Methylpiperazin-1′″-yl)benzimidazol-2″-yl)benzimidazol-2′-yl)pyridine]",14.4,1.20,1.93,2.10,18.2,–,–,–,–,–
"Cc1ccc(-c2nc3ccc(-c4nc5ccc(N6CCN(C)CC6)cc5[nH]4)cc3[nH]2)nc1 [Example 6, 5-Methyl-2-(5′-(5″-(4′″-methylpiperazin-1′″-yl)benzimidazol-2″-yl)benzimidazol-2′-yl)pyridine]",–,–,2.43,2.52,26.2,14.6,1.13,200 to 204 °C,–,–
"c1ccc(-c2nc3ccc(-c4nc5ccc(N6CCOCC6)cc5[nH]4)cc3[nH]2)nc1 [Example 19, 2-(5′-(5″-Morpholinobenzimidazol-2″-yl)benzimidazol-2′-yl)pyridine]",14.3,1.19,1.66,2.26,69.6,15.2,1.18,–,–,–
"OC1CCN(c2ccc3nc(-c4ccc5nc(-c6cc7ccccc7cn6)[nH]c5c4)[nH]c3c2)CC1 [Example 23, 3-(5′-(5″-(4′″-Hydroxypiperidin-1′″-yl)benzimidazol-2″-yl)benzimidazol-2′-yl)isoquinoline]",–,–,2.13,2.26,36.5,–,–,222 °C (dec.),14.6,1.13
